What was measured:
[1] = biological target: Nitric oxide synthase, inducible (Homo sapiens, UniProt P35228); test: Ability to inhibit the conversion of [3H]L-Arg to [3H]L-citrulline catalyzed by i-NOS from human DLD-1 cells; type: functional, cell-based
Nitric oxide synthase 3 = biological target: T1, Nitric oxide synthase 3 (Homo sapiens, UniProt P29474); test: Ability to inhibit the conversion of [3H]L-Arg to [3H]L-citrulline catalyzed by e-NOS from HUVEC cells; type: functional, cell-based
T1 sequence (P29474 whole entry): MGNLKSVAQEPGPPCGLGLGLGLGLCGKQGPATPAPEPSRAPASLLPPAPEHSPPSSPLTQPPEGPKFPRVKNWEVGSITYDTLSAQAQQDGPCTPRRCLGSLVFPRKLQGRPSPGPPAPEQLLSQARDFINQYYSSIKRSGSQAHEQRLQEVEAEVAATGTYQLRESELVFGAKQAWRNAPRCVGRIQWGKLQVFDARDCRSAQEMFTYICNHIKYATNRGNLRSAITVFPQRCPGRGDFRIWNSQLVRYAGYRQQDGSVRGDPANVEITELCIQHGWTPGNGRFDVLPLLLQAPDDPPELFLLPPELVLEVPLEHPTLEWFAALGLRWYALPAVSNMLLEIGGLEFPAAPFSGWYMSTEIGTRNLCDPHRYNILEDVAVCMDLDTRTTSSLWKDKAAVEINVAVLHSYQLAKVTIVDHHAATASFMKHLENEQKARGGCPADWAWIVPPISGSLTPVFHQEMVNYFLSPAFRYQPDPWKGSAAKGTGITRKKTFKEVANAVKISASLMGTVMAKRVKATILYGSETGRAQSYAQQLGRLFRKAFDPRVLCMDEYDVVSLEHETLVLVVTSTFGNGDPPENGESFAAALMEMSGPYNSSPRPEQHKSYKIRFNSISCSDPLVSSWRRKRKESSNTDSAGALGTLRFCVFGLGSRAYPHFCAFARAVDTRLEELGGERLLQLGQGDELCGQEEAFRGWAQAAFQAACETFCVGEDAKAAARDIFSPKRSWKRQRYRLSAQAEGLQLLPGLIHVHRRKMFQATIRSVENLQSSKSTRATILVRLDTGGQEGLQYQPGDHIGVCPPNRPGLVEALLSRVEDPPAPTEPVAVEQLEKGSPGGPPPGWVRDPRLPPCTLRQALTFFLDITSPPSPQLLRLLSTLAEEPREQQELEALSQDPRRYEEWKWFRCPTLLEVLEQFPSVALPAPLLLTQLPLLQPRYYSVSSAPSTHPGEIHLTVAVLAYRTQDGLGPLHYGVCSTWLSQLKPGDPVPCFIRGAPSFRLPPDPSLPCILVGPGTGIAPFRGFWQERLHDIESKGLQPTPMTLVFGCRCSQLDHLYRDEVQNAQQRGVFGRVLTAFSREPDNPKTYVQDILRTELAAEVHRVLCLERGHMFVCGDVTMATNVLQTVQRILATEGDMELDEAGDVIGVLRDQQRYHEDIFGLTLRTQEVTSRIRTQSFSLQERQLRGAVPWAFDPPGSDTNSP

Nitric oxide synthase 1 = Nitric oxide synthase 1 (Rattus norvegicus, UniProt P29476); test: Ability to inhibit the conversion of [3H]-L-Arg to [3H]L-citrulline catalyzed by n-NOS from rat cerebellum; type: functional, tissue-based
Nitric oxide synthase 1, sequence (P29476 whole entry): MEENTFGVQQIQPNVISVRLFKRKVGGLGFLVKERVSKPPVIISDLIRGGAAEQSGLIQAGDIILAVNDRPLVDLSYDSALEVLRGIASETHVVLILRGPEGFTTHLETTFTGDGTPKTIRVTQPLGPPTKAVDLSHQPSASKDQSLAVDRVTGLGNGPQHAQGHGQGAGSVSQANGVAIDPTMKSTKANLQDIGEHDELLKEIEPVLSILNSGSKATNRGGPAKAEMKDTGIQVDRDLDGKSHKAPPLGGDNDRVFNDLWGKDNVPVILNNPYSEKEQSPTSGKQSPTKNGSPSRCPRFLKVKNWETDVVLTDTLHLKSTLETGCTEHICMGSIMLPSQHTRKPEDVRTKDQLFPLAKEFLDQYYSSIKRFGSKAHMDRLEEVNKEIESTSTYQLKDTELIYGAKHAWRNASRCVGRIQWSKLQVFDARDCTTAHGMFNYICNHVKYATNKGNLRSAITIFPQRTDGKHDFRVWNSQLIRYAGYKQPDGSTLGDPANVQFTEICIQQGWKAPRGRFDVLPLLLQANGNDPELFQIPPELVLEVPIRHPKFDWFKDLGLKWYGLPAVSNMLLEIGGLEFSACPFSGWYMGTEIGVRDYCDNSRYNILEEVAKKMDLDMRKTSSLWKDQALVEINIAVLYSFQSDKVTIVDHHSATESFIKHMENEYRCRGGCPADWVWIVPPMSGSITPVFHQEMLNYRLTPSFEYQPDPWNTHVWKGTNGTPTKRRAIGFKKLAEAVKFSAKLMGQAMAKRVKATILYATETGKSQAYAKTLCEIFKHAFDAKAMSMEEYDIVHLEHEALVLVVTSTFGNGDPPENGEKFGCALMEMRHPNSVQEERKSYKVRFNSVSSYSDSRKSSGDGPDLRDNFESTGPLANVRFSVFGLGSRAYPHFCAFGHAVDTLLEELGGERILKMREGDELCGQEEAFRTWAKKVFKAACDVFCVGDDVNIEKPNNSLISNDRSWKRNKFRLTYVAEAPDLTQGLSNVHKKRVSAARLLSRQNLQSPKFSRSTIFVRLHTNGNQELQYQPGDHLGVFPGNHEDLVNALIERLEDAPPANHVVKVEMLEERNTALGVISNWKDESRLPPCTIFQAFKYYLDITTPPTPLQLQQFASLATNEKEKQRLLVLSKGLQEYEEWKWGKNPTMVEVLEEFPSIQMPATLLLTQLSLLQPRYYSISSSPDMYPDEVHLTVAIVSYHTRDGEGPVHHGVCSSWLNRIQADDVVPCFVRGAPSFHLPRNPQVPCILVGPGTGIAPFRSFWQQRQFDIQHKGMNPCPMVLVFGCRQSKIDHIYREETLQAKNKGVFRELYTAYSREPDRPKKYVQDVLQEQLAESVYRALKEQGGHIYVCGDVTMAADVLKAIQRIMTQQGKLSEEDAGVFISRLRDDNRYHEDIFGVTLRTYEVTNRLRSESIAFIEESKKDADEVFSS

HUVEC = test: Ability to inhibit the conversion of [3H]L-Arg to [3H]L-citrulline catalyzed by e-NOS from HUVEC cells at 100 uM concentration; type: functional; conditions: Homo sapiens
DLD-1 = test: Concentration required to inhibit nitric oxide synthesis in DLD-1 cells; type: functional, cell-based; conditions: Homo sapiens
Rattus norvegicus [2] = test: Dose required for half maximal increase in mean arterial blood pressure of 40 mmHg after 15 min in anaesthetised rats, as a measure of eNOS activity; type: functional
Rattus norvegicus [3] = test: In vivo inhibition of iNOS is determined from the inhibition of LPS-induced nitrite production measured in rat blood plasma at 3.2 umol/kg for 15 min; type: functional; conditions: 0.25 h
Rattus norvegicus [4] = test: In vivo inhibition of iNOS is determined from the inhibition of LPS-induced nitrite production measured in rat blood plasma at 800 umol/kg for 15 min; type: functional; conditions: 0.25 h

Nitric oxide synthase, inducible, sequence (P35228 whole entry): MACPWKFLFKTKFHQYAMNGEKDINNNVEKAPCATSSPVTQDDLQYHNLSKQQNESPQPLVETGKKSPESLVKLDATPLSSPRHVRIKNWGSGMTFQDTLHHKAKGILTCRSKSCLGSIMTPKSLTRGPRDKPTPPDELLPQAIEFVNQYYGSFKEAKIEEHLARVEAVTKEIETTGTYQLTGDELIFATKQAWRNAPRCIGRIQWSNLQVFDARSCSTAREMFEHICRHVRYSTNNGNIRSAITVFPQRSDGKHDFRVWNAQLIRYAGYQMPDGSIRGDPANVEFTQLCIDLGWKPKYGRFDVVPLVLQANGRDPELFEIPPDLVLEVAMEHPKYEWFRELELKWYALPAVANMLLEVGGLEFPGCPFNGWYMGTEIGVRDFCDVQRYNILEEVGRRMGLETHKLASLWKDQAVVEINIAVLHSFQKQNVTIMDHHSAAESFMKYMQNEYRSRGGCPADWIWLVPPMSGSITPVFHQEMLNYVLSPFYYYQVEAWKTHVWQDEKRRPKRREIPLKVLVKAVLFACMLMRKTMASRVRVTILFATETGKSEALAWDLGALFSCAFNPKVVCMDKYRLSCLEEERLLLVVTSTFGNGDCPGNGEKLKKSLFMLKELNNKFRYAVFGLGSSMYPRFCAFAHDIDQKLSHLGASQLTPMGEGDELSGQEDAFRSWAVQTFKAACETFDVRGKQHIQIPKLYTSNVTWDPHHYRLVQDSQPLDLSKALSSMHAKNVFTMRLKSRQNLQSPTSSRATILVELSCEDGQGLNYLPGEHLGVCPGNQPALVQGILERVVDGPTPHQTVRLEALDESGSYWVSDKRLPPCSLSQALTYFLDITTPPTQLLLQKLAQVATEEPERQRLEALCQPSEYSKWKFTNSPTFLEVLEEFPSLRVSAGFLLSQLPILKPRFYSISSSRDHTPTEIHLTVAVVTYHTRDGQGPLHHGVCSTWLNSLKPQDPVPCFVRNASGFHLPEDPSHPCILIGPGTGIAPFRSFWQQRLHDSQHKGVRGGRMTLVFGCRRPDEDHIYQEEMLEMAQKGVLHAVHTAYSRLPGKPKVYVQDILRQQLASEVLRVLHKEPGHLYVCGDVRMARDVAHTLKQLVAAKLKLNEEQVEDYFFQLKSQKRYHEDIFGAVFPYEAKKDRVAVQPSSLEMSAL

Row | SMILES | IC50 [1] | IC50 (Nitric oxide synthase 3) | IC50 (Nitric oxide synthase 1) | inhibition at 100 µM (HUVEC) | IC50 (DLD-1) | Dose (Rattus norvegicus [2]) | ED50 (Rattus norvegicus [3]) | ED50 (Rattus norvegicus [4])
1 | NC1=NCCc2sccc21 | 1600 nM |  | 100 nM |  |  |  |  | 
2 | NC1=NC(c2cccnc2)Cc2ccsc21 (stereo not given) | 2800 nM |  | 260 nM |  |  |  |  | 
3 | NC1=NC(c2cccs2)Cc2ccsc21 (stereo not given) | 150 nM | 1900 nM | 50 nM |  | 9200 nM |  |  | 
4 | NC1=NC(C2CC2)Cc2sccc21 (stereo not given) | 190 nM | 750 nM | 18 nM |  | 8700 nM |  |  | 
5 | C#CC1Cc2sccc2C(N)=N1 (stereo not given) | 110 nM | 120 nM | 25 nM |  | 15000 nM |  |  | 
6 | C#CC1Cc2ccsc2C(N)=N1 (stereo not given) | 40 nM | 80 nM | 6 nM |  | 5800 nM |  |  | 
7 | C#CC1Cc2cc(C)sc2C(N)=N1 (stereo not given) | 3500 nM | 10000 nM | 910 nM |  |  |  |  | 
8 | NC1=NC(C2CC2)Cc2ccsc21 (stereo not given) | 51 nM | 50 nM | 11 nM |  | 3600 nM |  |  | 
9 | CNC(=N)NCCCC(N)C(=O)O (single isomer, unassigned) [TILARGININE] |  |  |  |  | 170000 nM | 100 µM/kg |  | 100 µmol/kg

Further lines, with some results ahead:

Row | IC50 [1] | IC50 (Nitric oxide synthase 3) | IC50 (Nitric oxide synthase 1) | SMILES | inhibition at 100 µM (HUVEC) | IC50 (DLD-1) | Dose (Rattus norvegicus [2]) | ED50 (Rattus norvegicus [3]) | ED50 (Rattus norvegicus [4])
10 | 730 nM | 280 nM | 550 nM | NC1=NCCc2ccsc21 |  |  |  |  | 
11 | 28000 nM |  | 4100 nM | NC1=NC(C#Cc2ccccc2)Cc2ccsc21 (stereo not given) | < 25% |  |  |  | 
12 | 89 nM | 920 nM | 40 nM | NC1=NC(c2ccco2)Cc2ccsc21 (stereo not given) |  | 2200 nM | 0.4 µM/kg | 0.4 µmol/kg | 
13 | 2700 nM | 9500 nM | 740 nM | NC1=NC(c2ccccc2)Cc2sccc21 (stereo not given) |  |  |  |  | 
14 | 8300 nM | 4000 nM | 140 nM | NC1=NC(c2ccccc2)Cc2ccsc21 (stereo not given) |  |  |  |  | 
15 | 3600 nM |  | 10000 nM | CC(C)(C)C#CC1Cc2ccsc2C(N)=N1 (stereo not given) | < 25% |  |  |  | 
16 | 150 nM | 5000 nM | 80 nM | CC#CC1Cc2ccsc2C(N)=N1 (stereo not given) |  | 34000 nM |  |  | 

Reference: ChEMBL document CHEMBL1134021, “Thienopyridines: nitric oxide synthase inhibitors with potent in vivo activity” (Bioorg Med Chem Lett, 2001)
